Measurements taken from patent US20250003877A1, “Silyl Bridged Dyes” (priority 2021, published 2025).
Read-outs that look alike come from different tables or passages of the source.

[1] = spirolactone dyes, table title says PBS, text (b560-b564) says maximal ε when ring-opened in EtOH/0.1% TFA
[2] = spirolactone dyes, ϕ in PBS × ε in EtOH/0.1% TFA

Compound	Brightness (ϕ × ε) (PBS)	Em (nm) (PBS)	Ex (nm) (PBS)	ε (M^−1 cm^−1) (PBS)	ϕ (quantum yield) (PBS, pH 7.4)	also measured
C=C[Si]1(C=C)c2cc3c(cc2C(c2ccccc2C)=c2cc4c(cc21)=[N+](C)CCC4)CCCN3C [Compound 017, 1,11-Dimethyl-6-(o-tolyl)-13,13-divinyl-2,3,4,8,9,10,11,13-octahydrosilino[3,2-g:5,6-g′]diquinolin-1-ium]	75,104	702 nm	683 nm	234,700 M^−1 cm^−1	0.32	brighter than dimethylsilyl counterpart (vs 001 (for 002, 009) or vs 016 (for 017), PBS): 60%
Cc1ccccc1C1=C2C=CC(=[N+](C)C)C=C2[Si](C)(c2ccccc2)c2cc(N(C)C)ccc21 (stereo not shown) [Compound 004, N-(7-(Dimethylamino)-5-methyl-5-phenyl-10-(o-tolyl)dibenzo[b,e]silin-3(5H)-ylidene)-N-methylmethanaminium]	34,203	670 nm	657 nm	99,140 M^−1 cm^−1	0.35	
Cc1ccccc1C1=C2C=CC(=[N+]3CCC3)C=C2[Si](C)(CCCCl)c2cc(N3CCC3)ccc21 (stereo not shown) [Compound 027, 1-(7-(Azetidin-1-yl)-5-(3-chloropropyl)-5-methyl-10-(o-tolyl)dibenzo[b,e]silin-3(5H)-ylidene)azetidin-1-ium]	81,683	668 nm	651 nm	166,700 M^−1 cm^−1	0.49	quantum yield (EtOH/0.1% TFA, mix of two isomers): 0.61; extinction coefficient (measured in PBS, mix of two isomers): ~4,000; emission (mix of two isomers): 670 nm; excitation wavelength (mix of two isomers): 653 nm
C=C[Si]1(C=C)c2cc3c(cc2C(c2ccccc2C)=c2cc4c(cc21)=[N+](C)CC4)CCN3C [Compound 021, 1,9-Dimethyl-5-(o-tolyl)-11,11-divinyl-2,3,7,8,9,11-hexahydrosilino[3,2-f:5,6-f]diindol-1-ium]	17,693	728 nm	702 nm	136,100 M^−1 cm^−1	0.13	
Cc1ccccc1C1=c2cc3c(cc2[Si](C)(CCCCl)c2cc4c(cc21)CCCN4C)=[N+](C)CCC3 (stereo not shown) [Compound 019, 13-(3-Chloropropyl)-1,11,13-trimethyl-6-(o-tolyl)-2,3,4,8,9,10,11,13-octahydrosilino[3,2-g:5,6-g′]diquinolin-1-ium]	41,250	694 nm	677 nm	125,000 M^−1 cm^−1	0.33	
Cc1ccccc1C1=C2C=CC(=[N+]3CCC3)C=C2[Si](C)(C)c2cc(N3CCC3)ccc21 [Compound 024, 1-(7-(Azetidin-l-yl)-5,5-dimethyl-10-(o-tolyl)dibenzo[b,e]silin-3(5H)-ylidene)azetidin-1-ium, reference compound]	55,460	663 nm	649 nm	118,000 M^−1 cm^−1	0.47	
CCCCCCCC[Si]1(CCCCCCCC)C2=CC(=[N+](C)C)C=CC2=C(c2ccccc2C)c2ccc(N(C)C)cc21 [Compound 011, N-(7-(Dimethylamino)-5,5-dioctyl-10-(o-tolyl)dibenzo[b,e]silin-3(5H)-ylidene)-N-methylmethanaminium]		666 nm	651 nm	low extinction coefficient	0.18	Brightness (ϕ × ε) (EtOH): 89,091; fluorescence and scatter (EtOH): bright fluorescence and no scatter peak; ε (M^−1 cm^−1) (EtOH): 156,300 M^−1 cm^−1; ϕ (quantum yield) (EtOH): 0.57; Rayleigh scatter (PBS, 1 μM concentration): pronounced Rayleigh scatter peak
CN(C)c1ccc2c(c1)[Si@](C)(CCCSCC(=O)O)c1cc(N(C)C)ccc1[C@@]21OC(=O)c2ccccc21 [Compound 064, 2-((3-((5r,10r)-3,7-Bis(dimethylamino)-5-methyl-3′-oxo-3′H,5H-spiro[dibenzo[b,e]siline-10,1′-isobenzofuran]-5-yl)propyl)thio)acetic acid]		665 nm	645 nm		0.45	ε (M^−1 cm^−1) [1]: 160,400 M^−1 cm^−1
C=C[Si]1(c2ccccc2)C2=CC(=[N+](C)C)C=CC2=C(c2ccccc2C)c2ccc(N(C)C)cc21 (stereo not shown) [Compound 005, N-(7-(Dimethylamino)-5-phenyl-10-(o-tolyl)-5-vinyldibenzo[b,e]silin-3(5H)-ylidene)-N-methylmethanaminium]	53,499	676 nm	658 nm	150,700 M^−1 cm^−1	0.36	
Cc1ccccc1C1=C2C=CC(=[N+]3CCC3)C=C2[Si](c2ccccc2)(c2ccccc2)c2cc(N3CCC3)ccc21 [Compound 025, 1-(7-(Azetidin-1-yl)-5,5-diphenyl-10-(o-tolyl)dibenzo[b,e]silin-3(5H)-ylidene)azetidin-1-ium]	63,222	680 nm	663 nm	154,200 M^−1 cm^−1	0.41	
CN(C)c1ccc2c(c1)[Si@](C)(CCCCl)c1cc(N(C)C)ccc1[C@@]21OC(=O)c2ccccc21 [Compound 038, (5r,10r)-5-(3-Chloropropyl)-3,7-bis(dimethylamino)-5-methyl-3′H,5H-spiro[dibenzo[b,e]siline-10,1′-isobenzofuran]-3′-one]		665 nm	650 nm		0.40	extinction coefficient (maximum) in EtOH/0.1% TFA (EtOH/0.1% TFA): ~200,000 M−1 cm−1; ε (M^−1 cm^−1) [1]: 200,000 M^−1 cm^−1; Brightness (ϕ × ε) [2]: 80,000; overall brightness (ϕ in PBS × ε in EtOH/0.1% TFA): ~80,000 M−1 cm−1
Cc1ccccc1C1=c2cc3c(cc2[Si](c2ccccc2)(c2ccccc2)c2cc4c(cc21)CCN4C)=[N+](C)CC3 [Compound 022, 1,9-Dimethyl-11,11-diphenyl-5-(o-tolyl)-2,3,7,8,9,11-hexahydrosilino[3,2-f:5,6-f′]diindol-1-ium]	12,870	737 nm	710 nm	117,000 M^−1 cm^−1	0.11	
CN(C)c1ccc2c(c1)[Si@](C)(CCCCl)c1cc(N(C)C)ccc1[C@]21OC(=O)c2ccccc21 [Compound 037, (5s,10s)-5-(3-Chloropropyl)-3,7-bis(dimethylamino)-5-methyl-3′H,5H-spiro[dibenzo[b,e]siline-10,1′-isobenzofuran]-3′-one]		665 nm	650 nm		0.40	extinction coefficient (maximum) in EtOH/0.1% TFA (EtOH/0.1% TFA): ~200,000 M−1 cm−1; ε (M^−1 cm^−1) [1]: 200,000 M^−1 cm^−1; Brightness (ϕ × ε) [2]: 80,000; overall brightness (ϕ in PBS × ε in EtOH/0.1% TFA): ~80,000 M−1 cm−1
C=C[Si]1(C=C)C2=CC(=[N+](C)C)C=CC2=C(c2ccccc2C)c2ccc(N(C)C)cc21 [Compound 006, N-(7-(Dimethylamino)-10-(o-tolyl)-5,5-divinyldibenzo[b,e]silin-3(5H)-ylidene)-N-methylmethanaminium]	56,671	672 nm	657 nm	158,300 M^−1 cm^−1	0.36	
